Where two headings read alike, the source gives them in different places.
What was measured:
atherosclerotic lesions = test system: atherosclerotic lesions; parameters: method as in PMID 17803269, PMID 14718664; conditions: orally active; apolipoprotein E knockout mice and low density lipoprotein receptor knockout mice; cited from earlier work
SOAT2 [1] = biological target: T1, SOAT2 (Homo sapiens, UniProt O75908); assay: [14C]CE synthesis in intact hSOAT2-CHO cells (cell-based assay)
T1 construct: expressed in transfected cells; host or cells: CHO cells (AC29, SOAT-deficient)
T1 sequence (O75908 1-522): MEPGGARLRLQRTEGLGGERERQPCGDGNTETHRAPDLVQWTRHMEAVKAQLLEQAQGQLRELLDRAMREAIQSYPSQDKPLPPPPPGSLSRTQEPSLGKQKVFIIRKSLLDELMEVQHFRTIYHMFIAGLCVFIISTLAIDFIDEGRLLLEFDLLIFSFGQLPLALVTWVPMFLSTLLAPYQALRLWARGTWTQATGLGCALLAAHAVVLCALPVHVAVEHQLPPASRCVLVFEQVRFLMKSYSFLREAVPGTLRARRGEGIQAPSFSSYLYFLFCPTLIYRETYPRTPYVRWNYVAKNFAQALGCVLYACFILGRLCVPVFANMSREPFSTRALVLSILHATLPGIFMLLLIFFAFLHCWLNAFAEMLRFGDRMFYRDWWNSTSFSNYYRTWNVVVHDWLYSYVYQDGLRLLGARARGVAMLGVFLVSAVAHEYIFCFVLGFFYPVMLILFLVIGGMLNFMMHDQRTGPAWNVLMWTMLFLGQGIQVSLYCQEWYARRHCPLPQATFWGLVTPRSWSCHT
Procedure: CHO cells (AC29 cells, SOAT-deficient cells)[37] expressing the SOAT1 or SOAT2 gene from African Green monkeys and humans were cultured by the method described previously.
The assay for the synthesis of [^14C]cholesteryl ester (CE) from [^14C]oleic acid in intact SOAT1- or SOAT2-CHO cells was performed according to our established method.

SOAT2 [2] = biological target: T1, SOAT2; assay: Enzyme-based SOAT assay, microsomes from hSOAT2-CHO cells (Potter-type homogenizer); assay type: biochemical
Procedure: An enzyme source from SOAT1-/SOAT2-CHO cells using a Potter-type homogenizer was prepared using our established method[18]. Briefly, SOAT1 or SOAT2-CHO cells (2.0 × 10^8 cells) were homogenized in 5 ml cold buffered sucrose solution (pH 7.2, 100 mM sucrose, 50 mM KCl, 40 mM KH2PO4, and 30 mM EDTA, hereafter referred to as Buffer A) including protease inhibitors (Complete mini (Roche)) in the Potter-type homogenizer. The microsomal fraction was pelleted by centrifugation at 100,000 × g at 4.0 °C for 1.0 h (TLA110, Beckman Coulter), resuspended in the same buffer at a concentration of 5.0 mg protein/ml, and stored at −80 °C until used.
SOAT1 and SOAT2 activities were measured using fractionation prepared as described above as an enzyme source[18]. Briefly, an assay mixture was made containing 500 µg BSA (fatty acid free) and [1-^14C]oleoyl-CoA (20 µM, 3.7 kBq). A test sample (5.0 µl in methanol solution) and microsomes or the ER fractionation of SOAT1- and SOAT2-CHO cells in a total volume of 200 µl Buffer A was incubated at 37 °C. The SOAT reaction was started by adding [1-^14C]oleoyl-CoA. After a 5-min incubation, the reaction was stopped by adding chloroform: methanol (2:1, 1.2 ml). […] After the organic solvent was removed by evaporation, lipids were separated on a TLC plate and the radioactivity of [^14C]CE was measured by our established method[18].

SOAT2 [3] = biological target: T2, SOAT2 (Chlorocebus aethiops, UniProt O77759); conditions: enzyme-based assay; African green monkey; cited from earlier work
T2 construct: expressed in transfected cells; host or cells: CHO cells (AC29, SOAT-deficient)
T2 sequence (O77759 1-526): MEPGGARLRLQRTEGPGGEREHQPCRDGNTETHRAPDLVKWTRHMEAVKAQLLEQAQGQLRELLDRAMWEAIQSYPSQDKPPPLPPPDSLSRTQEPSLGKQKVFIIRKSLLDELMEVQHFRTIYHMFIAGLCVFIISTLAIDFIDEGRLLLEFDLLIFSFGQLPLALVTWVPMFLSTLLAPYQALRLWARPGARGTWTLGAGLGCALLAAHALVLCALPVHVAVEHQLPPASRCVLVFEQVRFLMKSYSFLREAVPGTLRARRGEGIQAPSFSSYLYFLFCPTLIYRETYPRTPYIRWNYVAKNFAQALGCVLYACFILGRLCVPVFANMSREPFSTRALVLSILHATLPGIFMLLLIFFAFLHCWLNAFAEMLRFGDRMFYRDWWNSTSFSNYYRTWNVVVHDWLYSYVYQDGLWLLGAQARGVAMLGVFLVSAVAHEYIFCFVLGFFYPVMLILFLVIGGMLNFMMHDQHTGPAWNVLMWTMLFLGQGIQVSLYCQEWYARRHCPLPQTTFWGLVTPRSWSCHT

SOAT1 [4] = biological target: T3, SOAT1 (Chlorocebus aethiops, UniProt O77760); conditions: enzyme-based assay; African green monkey; cited from earlier work
T3 construct: expressed in transfected cells; host or cells: CHO cells (AC29, SOAT-deficient)
T3 sequence (O77760 1-550): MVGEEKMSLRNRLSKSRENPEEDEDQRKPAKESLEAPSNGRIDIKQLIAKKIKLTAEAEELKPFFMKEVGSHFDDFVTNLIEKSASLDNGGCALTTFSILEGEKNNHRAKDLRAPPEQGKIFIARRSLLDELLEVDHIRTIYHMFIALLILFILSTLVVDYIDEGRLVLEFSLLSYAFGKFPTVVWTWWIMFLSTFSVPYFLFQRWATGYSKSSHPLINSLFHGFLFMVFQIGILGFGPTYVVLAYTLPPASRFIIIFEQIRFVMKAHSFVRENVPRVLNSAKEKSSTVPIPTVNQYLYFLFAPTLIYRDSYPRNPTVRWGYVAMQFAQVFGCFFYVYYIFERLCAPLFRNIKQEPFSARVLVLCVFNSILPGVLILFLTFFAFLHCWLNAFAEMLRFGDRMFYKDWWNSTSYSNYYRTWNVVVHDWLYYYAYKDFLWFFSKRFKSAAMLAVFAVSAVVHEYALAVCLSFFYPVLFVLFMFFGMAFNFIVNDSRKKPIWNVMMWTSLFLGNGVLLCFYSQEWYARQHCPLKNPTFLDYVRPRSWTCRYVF

SOAT2 [5] = biological target: T2, SOAT2; conditions: cell-based assay; African green monkey; cited from earlier work
SOAT1 [6] = biological target: T4, SOAT1 (Mus musculus, UniProt Q61263); assay: Immunofluorescence staining of SOAT1 and Biotin-Beau in mouse peritoneal macrophages; assay type: cell-based; conditions: Biotin-Beau 9.8 µM
T4 construct: endogenous in cells; host or cells: primary mouse peritoneal macrophages (ICR mice)
T4 sequence (Q61263 1-540): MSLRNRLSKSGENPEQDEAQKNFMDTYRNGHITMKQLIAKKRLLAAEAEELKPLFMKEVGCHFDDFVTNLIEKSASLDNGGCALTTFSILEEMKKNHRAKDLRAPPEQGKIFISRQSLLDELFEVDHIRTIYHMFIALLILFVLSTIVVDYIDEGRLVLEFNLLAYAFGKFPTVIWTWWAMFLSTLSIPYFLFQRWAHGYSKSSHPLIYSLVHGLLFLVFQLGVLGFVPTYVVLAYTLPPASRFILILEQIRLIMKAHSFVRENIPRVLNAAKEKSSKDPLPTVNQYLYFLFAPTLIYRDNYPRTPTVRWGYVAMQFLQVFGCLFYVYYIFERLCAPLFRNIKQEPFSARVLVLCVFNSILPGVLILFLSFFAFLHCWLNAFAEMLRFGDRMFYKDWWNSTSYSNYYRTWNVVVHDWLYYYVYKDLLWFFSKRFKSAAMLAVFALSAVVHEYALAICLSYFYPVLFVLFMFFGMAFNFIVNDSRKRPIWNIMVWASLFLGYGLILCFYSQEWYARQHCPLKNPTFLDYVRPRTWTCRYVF
Excerpt: Supplementary Experiment Methods
Goat anti-rabbit IgG conjugated to fluorescein isothiocyanate (FITC) was purchased from Sigma-Aldrich (St. Louis, MO). Hank’s balanced salt solution was purchased from Nissui Seiyaku (Tokyo, Japan). Streptavidin conjugated to Alexa Fluor 546 was purchased from Thermo Fisher Scientific (Wa l t h a m , M A). […]
Immunofluorescence staining of SOAT1 and Biotin-Beau in mouse peritoneal […]
Mouse peritoneal macrophages from ICR mice (Japan SLC, Inc., Japan) were prepared as described previously1. Briefly, primary mouse peritoneal macrophages (2.0 x 10^5 cells) with liposomes in each well of a tissue culture chamber (LAB-TEK 8-chamber) were incubated at 37°C in 5.0% CO 2. After a 14-h incubation, cells were washed three times with PBS, fixed with 3.7% formalin for 10 min, and permeabilized with PBS containing 0.10% Tr i t o n X-100 at room temperature for 20 min. […]
After a 1-h incubation, cells were stained with the secondary antibody, a goat anti-rabbit IgG conjugated to FITC ([…]) and streptavidin conjugated to Alexa Fluor 546 (1.0 µg/ml) in blocking buffer, for 1.0 h. Cells were washed three times after the incubation and analyzed with confocal laser scanning microscopy (LSM-510 META, Carl Zeiss, Germany). Images were analyzed with a Zeiss LSM Image Browser (Version 3.5.0.376) […]

SOAT1 [7] = biological target: T3, SOAT1; assay: Interaction of Biotin-Beau-immobilized beads with SOAT1 protein (SDS-PAGE, Western blotting); assay type: binding, African green monkey; conditions: microsomes from SOAT1-CHO cells, band at approximately 53 kDa, none from AC29 cells or control beads
Excerpt: The direct interaction between beauveriolide and SOAT1 was investigated. […] Therefore, Biotin-Beau may be employed as a useful bio-probe to investigate interactions between SOAT1 and beauveriolide. Biotin-Beau was attached to acrylamide-based streptavidin beads, and microsomes prepared from SOAT1-CHO cells and AC29 cells (control, SOAT-deficient CHO cells) were applied to the beads. After washing the beads, bound proteins were recovered with Laemmli sample buffer, separated by SDS-PAGE, and stained with the SOAT1 antibody. […] However, no protein was observed from control AC29 cells (lane (1)) or control beads (no Biotin-Beau-carrying beads) (lane (3)).
The microsomal fraction (500 µg protein in 100 µl buffer A) prepared from AC29 (SOAT-deficient CHO cells) or amgSOAT1-CHO cells using the Potter-type homogenizer as described above were mixed with 0.10% (v/v) Triton X-100 on ice for 10 min. Biotin-Beau (10 nmol)[11] was attached to acrylamide-based streptavidin beads (5.0 nmol)[39]. Microsomes (500 µg) prepared from AC29 cells or SOAT1-CHO cells were added to Biotin-Beau-carrying beads and mixed well at 4.0 °C for 1.0 h with a rotator. The beads were collected by centrifugation at 1,000 rpm at 4.0 °C for 5.0 min and washed three times with PBS (300 µl). […] After separation by SDS-PAGE, SOAT1 protein levels was measured as described above.

SOAT1 [8] = biological target: T3, SOAT1; conditions: cited from earlier work
SOAT1 and SOAT2 = test system: SOAT1 and SOAT2; parameters: method as in PMID 14617738, PMID 17390588, PMID 16820149, PMID 16730694, PMID 16626720; conditions: cited from earlier work

**Q.** For `CCCC[C@H](C)[C@@H]1CC(=O)N[C@@H](Cc2ccccc2)C(=O)N[C@@H](C)C(=O)N[C@H]([C@@H](C)CC)C(=O)O1` [Beauveriolide III], which “effect on atherosclerotic lesions” value (atherosclerotic lesions) is on record?
**A.** The value was “reducing atherosclerotic lesions in the aortae and hearts”.

**Q.** Which IC50 (SOAT2 [1]) does the source give for `CCCC[C@H](C)[C@@H]1CC(=O)N[C@@H](Cc2ccccc2)C(=O)N[C@@H](C)C(=O)N[C@H](CC(C)C)C(=O)O1` [Beauveriolide I] here?
**A.** The IC50 was > 20 µM.

**Q.** What about the IC50 (SOAT2 [2]) of the same molecule?
**A.** The IC50 was 1100 nM.

**Q.** And the IC50 (SOAT2 [3])?
**A.** Its IC50 is 1.9 µM.

**Q.** For `CCCC[C@H](C)[C@@H]1CC(=O)N[C@@H](C(c2ccccc2)c2ccccc2)C(=O)N[C@H](Cn2cc(CNC(=O)CCCCNC(=O)CCCC[C@@H]3SC[C@@H]4NC(=O)N[C@@H]43)nn2)C(=O)N[C@H](C2CCCCC2)C(=O)O1` [Biotin-labeled beauveriolide], which IC50 (SOAT1 [4]) is on record?
**A.** The IC50 was 0.6 µM.

**Q.** And the “SI (type)” value (SOAT1 [4])?
**A.** The value was “SOAT1 (SOAT1-selective type, SI < −1.00)”.

**Q.** And the IC50 (SOAT2 [5])?
**A.** Its IC50 is > 10 µM.

**Q.** And the “cellular localization relative to SOAT1” value (SOAT1 [6])?
**A.** The value was “colocalized with a restricted area of SOAT1 protein distribution”.

**Q.** And the IC50 (SOAT2 [3])?
**A.** Its IC50 is 8 µM.

**Q.** What about the “binding to SOAT1 protein” value (SOAT1 [7]) of the same molecule?
**A.** The value was “bound to the SOAT1 protein”.

**Q.** What about the “binding to SOAT1 protein” value (SOAT1 [7]; listed as Biotin-Beau) of the same molecule?
**A.** Its value is “directly binds to the SOAT1 protein”.

**Q.** What about the “effect on CE synthesis” value (SOAT1 [8]; cell-based assay using SOAT1-/SOAT2-CHO cells) of the same molecule?
**A.** Its value is “no effect on CE synthesis”.

**Q.** And the IC50 (SOAT1 [8]; cell-based assay, African green monkey)?
**A.** The IC50 was > 10 µM.

**Q.** For `CSc1cc(C)nc(SC)c1NC(=O)CN1CCN(CCSc2nc3ccccc3[nH]2)CC1` [K-604], which “group of SOAT inhibitor from SI values” (SOAT1 and SOAT2) is on record?
**A.** Its value is “SOAT1-selective inhibitors (SOAT1-selective inhibitors (SI, <−1.00))”.

**Q.** Which “group of SOAT inhibitor from SI values” (SOAT1 and SOAT2) does the source give for `CC(C)c1cc(C(C)C)c(CC(=O)NS(=O)(=O)Oc2c(C(C)C)cccc2C(C)C)c(C(C)C)c1` [avasimibe] here?
**A.** The value was “dual inhibitors (dual inhibitors (−1.00 ≤ SI ≤+1.00) inhibiting SOAT1 and SOAT2)”.

**Q.** Which “group of SOAT inhibitor from SI values” (SOAT1 and SOAT2) does the source give for `CCCCCCCCN1CCc2c(C)c(CC(=O)O)c(C)c(NC(=O)C(C)(C)C)c21` [pactimibe] here?
**A.** The value was “dual inhibitors (dual inhibitors (−1.00 ≤ SI ≤+1.00) inhibiting SOAT1 and SOAT2)”.

Reference: publication PMC5482845 (Scientific Reports, 2017)
